Measurements published in patent publication EP3354264A1, “PROPHYLAXIS AND TREATMENT OF NEISSERIA GONORRHOEAE EYE INFECTION” (Kingston University Higher Education Corporation, priority 2017, dated 2018).
In brackets after ≈: the same amount, converted by molar mass. Read-outs that look alike come from different tables or passages of the source. Each block holds one compound with its values, some of them ahead of it.

Experiments:
[1] = test system: Neisseria gonorrhoeae strain NCCP11945; experiment: Growth inhibition screen of organic acids; assay type: cell-based; conditions: strain NCCP11945, in vitro, 1 mM
Method: (§1) The well characterised N. gonorrhoeae strain NCCP11945 (Chung GT et al. (2008) Complete genome sequence of Neisseria gonorrhoeae NCCP11945. Journal of Bacteriology 190: 6035-6036) was used in the screening stage of this experiment. Eight isolates that were obtained from Public Health England from various European locations were used in the log reduction assays. All isolates were first cultured for 24 hours prior to testing by plating on GC solid medium (Oxoid Limited, Hampshire, UK) with Kellogg supplements and incubating at 37 °C, 5% CO2 (Kellogg DS, Jr., et al., (1963), J Bacteriol 85: 1274-1279).
(§2) A full list of all the organic acids tested in this study is in Table 1. The tested compounds include saturated and unsaturated fatty acids, monoglycerides, dicarboxylic acids, and fatty acid sodium salts. All compounds investigated were resuspended at a concentration of 100 mM in ethanol unless stated. All chemicals were obtained from Sigma-Aldrich (Poole, Dorset, UK).
Other organic acids were also active at this concentration, as noted in Table 1.

[2] = test system: Neisseria gonorrhoeae strain NCCP11945; experiment: Measurement of bactericidal action (log reduction); assay type: cell-based; conditions: for log reduction at 1000 µM: Neisseria gonorrhoeae
Method: as §1, §2
(§3) Log reductions were done using the same method as in Bergsson et al., (1999), Antimicrob Agents Chemother 43: 2790-2792. Briefly, cells were suspended in GC broth (18 g/L GC Base (Oxiod, Limited) with added defined supplements) to an optical density of 0.3 at 520 nm which is approximately equivalent to 107 - 108 cells per millilitre (Macfarlane DE et al. (1980) Improved media for the culture of Neisseria gonorrhoeae. J Med Microbiol 13: 597-607). Five hundred microliters of the suspension was then added to 5 µl of the 100 mM stocks to give a final concentration of 1 mM. A negative control was also done to calculate the reduction in bacterial titre by adding 500 µl to 5 µl ethanol. The tubes were then mixed at room temperature for two minutes and immediately diluted in a 10 fold dilution series down to 10-4. The dilutions were plated by spreading 10 µl on a quarter of a plate and 100 µl of the neat solution was also plated. Plates were incubated at 37 °C for 48 hours. All samples were plated in duplicate. A reduction in viable cell count by more than 4 log10 was deemed to be bactericidal and was selected for further investigation. Bactericidal compounds were then tested at concentrations of 0.75, 0.5, and 0.25 mM (0.125 mM was also used in some potent compounds) to find the minimum bactericidal concentration. Additional testing at lower concentrations was also done on the eight clinical isolates of European origin.

[3] = test system: Neisseria gonorrhoeae strain NCCP11945; experiment: Log reduction in artificial tear fluid; assay type: cell-based; conditions: artificial tear fluid containing calcium chloride; two minute exposure; Figure 8
Method: Artificial tear fluid was made as in Mirejovsky et al., Optometry and Vision Science, (1991), 68: 858-864. […] Neisseria gonorrhoeae strain NCCP11945 was used in these experiments. As the previous log reductions, […] were suspended in GC broth. The cell suspension was centrifuged to remove the culture medium and the bacteria resuspended in the tear fluid. This was then added to the concentrated organic acid candidates. The cells were then counted again after two minute exposure to estimate any reduction due to the exposure to the fatty acid.
In a first experiment, the artificial tear fluid formulation includes calcium chloride to mimic the calcium in natural tears. As shown by the results in Figure 8, the anti-gonococcal properties of myristoleic acid (C14:1cΔ9), palmitoleic acid (C16:1cΔ9), linolenic acid (C18:3cΔ9,12,15), and monocaprin(C10) are retained in the artificial tear fluid formulation containing calcium chloride.
In a second experiment, calcium chloride was omitted from the artificial tear fluid formulation. The results in Figure 9 indicate that the anti-gonococcal properties of lauric acid (C12:0), tridecanoic acid (C13:0), and sodium dodecanoate were retained in the artificial tear fluid formulation without.

[4] = in vitro; assay type: cell-based, bovine; conditions: red blood cells, bovine RBCs, shaken 1 hour at room temperature
Method: (§4) Whole bovine blood was obtained from a local slaughter house (ABP, Guildford, Surrey, UK), adding 90 ml blood to 10 ml of 110 mM tri-sodium citrate anticoagulant. RBCs were isolated the same day. The RBCs were washed by three repeats of centrifugation (1,500 x g for 10 minutes) and resuspension in PBSG. Testing was done following European Union Reference Laboratory for alternatives to animal testing (EURL-ECVAM) guidelines (Lewis RW (2010) DB-ALM Protocol No. 99: Red blood cell (RBC) Test System. EURL ECVAM). The organic acids were made up in DMSO and diluted to a DMSO concentration maximum of 10 % (v/v). Samples were shaken at room temperature for 1 hour and then centrifuged at 10,000 rpm for 2 minutes. An aliquot of 750 µl of the supernatant was taken and absorbance at […] tested.

[5] = test system: panel of nine N. gonorrhoeae isolates (strain NCCP11945 and eight isolates from Public Health England); experiment: Minimum bactericidal concentration by log reduction, panel of isolates; assay type: cell-based; conditions: Neisseria gonorrhoeae, 2 min; lowest concentration tested giving an average 4 log10 reduction after two minute exposure; nine isolates; read-out: Minimum bactericidal concentration
Method: as §1, §3
As shown by the results in Table 3 which presents data on the log reductions of bacterial cell counts, against a panel of nine N. gonorrhoeae isolates (strain NCCP11945 and eight isolates from Public Health England), myristoleic acid (C14:1cΔ9), palmitoleic acid (C16:1cΔ9), linolenic acid (C18:3cΔ9,12,15), and monocaprin (C10) have a minimal bactericidal concentration, defined as the lowest concentration tested to give an average 4 log10 reduction in bacterial count after a two minute exposure, of 0.5 mM. Against a panel of nine N. gonorrhoeae isolates, lauric acid (C12:0), tridecanoic acid (C13:0), and sodium dodecanoate have a minimal bactericidal concentration of 0.75 mM.

[6] = test system: RBCs; experiment: in vitro; assay type: cell-based, bovine; conditions: at their minimum bactericidal concentration
Method: as §4

[7] = 2 min, strain NCCP11945, 1 mM, 2 minutes, read-out: Log reduction of Neisseria gonorrhoeae
[8] = NCCP11945, 2 min, read-out: Log reduction of Neisseria gonorrhoeae, strain NCCP11945, 1 mM, 2 minutes
[9] = strain NCCP11945, 1 mM, 2 minutes

SMILES: CCCCCCCC(=O)OCC(O)CO (racemic) [1-Octanoyl-rac-Glycerol C8, 1-Octanoyl-rac-Glycerol]
Inhibits growth of Neisseria gonorrhoeae [1]: Yes

SMILES: O=C(O)CCCCC(=O)O [Adipic acid]
Inhibits growth of Neisseria gonorrhoeae [1]: No

SMILES: CCCCC/C=C\C/C=C\C/C=C\C/C=C\CCCC(=O)O [Arachidonic acid 20:4 cΔ5,8,11,14, Arachidonic acid]
Inhibits growth of Neisseria gonorrhoeae [1]: Yes

SMILES: O=C(O)CCCCCCCC(=O)O [Azelaic acid]
Inhibits growth of Neisseria gonorrhoeae [1]: No

SMILES: CCCCCCCCCC(=O)O [Capric acid/Decanoic acid 10:0, Decanoic acid]
Inhibits growth of Neisseria gonorrhoeae [1]: No

SMILES: CCCCCCCC(=O)O [Caprylic/Octanoic acid 8:0, Octanoic acid]
Inhibits growth of Neisseria gonorrhoeae [1]: No

SMILES: CCCCCC/C=C\CCCCCCCCCC(=O)O [Cis-Vaccenic acid 18:1 cAll, Cis-Vaccenic acid]
Inhibits growth of Neisseria gonorrhoeae [1]: No

SMILES: CCCCCCCC/C=C/CCCCCCCC(=O)O [Elaidic acid 18:1 tΔ9, Elaidic acid]
Inhibits growth of Neisseria gonorrhoeae [1]: Yes | log reduction at 1000 µM [2, 7]: 0.5

SMILES: CCCCCCCC/C=C\CCCCCCCCCCCC(=O)O [Erucic acid 22:1 cΔ13, Erucic acid]
Inhibits growth of Neisseria gonorrhoeae [1]: Yes | log reduction at 1000 µM [2, 8]: 0

SMILES: CCCCCCCCCCCCCCCCC(=O)O [Heptadecylic acid 17:0, Heptadecylic acid]
Inhibits growth of Neisseria gonorrhoeae [1]: No

SMILES: CCCCCCCCCCCCCC(=O)OC(C)C [Isopropyl myristate]
Inhibits growth of Neisseria gonorrhoeae [1]: No

SMILES: CCCCCCCCCCCCCCCC(=O)OC(C)C [Isopropyl palmitate]
Inhibits growth of Neisseria gonorrhoeae [1]: No

SMILES: CCCCC/C=C\C/C=C\CCCCCCCC(=O)O [Linoleic acid 18:2 cΔ9,12, Linoleic acid]
Inhibits growth of Neisseria gonorrhoeae [1]: Yes | log reduction at 1000 µM [2, 7]: 1.6

HC50 at 1 h ([4]; read-out: H50): 70 to 140 µM | HC50 at 1 h ([4]; read-out: H50 (mg/L)): 20 to 40 mg/L
SMILES: CC/C=C\C/C=C\C/C=C\CCCCCCCC(=O)O [Linolenic acid 18:3 cΔ9,12,15, α-linolenic acid]
anti-gonococcal properties in artificial tear fluid [3]: retained | Inhibits growth of Neisseria gonorrhoeae [1]: Yes | Inhibits growth of Neisseria gonorrhoeae ([1]; listed as linolenic acid): able to inhibit growth | MBC [5]: 500 µM (≈ 139 µg/mL) | log reduction at 1000 µM [2, 7]: > 6 | Log reduction of Neisseria gonorrhoeae [2, 9]: able to cause a log reduction

SMILES: CCCCCCCCCCCC(=O)OCC(O)CO (centres unmarked) [Monolaurin C12, Monolaurin]
Inhibits growth of Neisseria gonorrhoeae [1]: Yes | log reduction at 1000 µM [2, 8]: 3.4

SMILES: CCCCCCCCCCCCCC(=O)OCC(O)CO (centres unmarked) [Monomyristin C14, Monomyristin]
Inhibits growth of Neisseria gonorrhoeae [1]: Yes | log reduction at 1000 µM [2, 8]: 0.6

SMILES: CCCCCCCCCCCCCC(=O)O [Myristic acid 14:0, Myristic acid]
Inhibits growth of Neisseria gonorrhoeae [1]: Yes | Log reduction of Neisseria gonorrhoeae [2, 9]: 1.5

HC50 at 1 h ([4]; read-out: H50): 2600 to 3500 µM | HC50 at 1 h ([4]; read-out: H50 (mg/L)): 600 to 800 mg/L
SMILES: CCCC/C=C\CCCCCCCC(=O)O [Myristoleic acid 14:1 cΔ9, (Z)-tetradec-9-enoic acid]
anti-gonococcal properties in artificial tear fluid [3]: retained | Inhibits growth of Neisseria gonorrhoeae [1]: Yes | Inhibits growth of Neisseria gonorrhoeae ([1]; listed as myristoleic acid): able to inhibit growth | RBC lysis assay prediction of irritation [6]: not irritating | MBC [5]: 500 µM (≈ 113 µg/mL) | log reduction at 1000 µM [2, 7]: > 6 | Log reduction of Neisseria gonorrhoeae [2, 9]: able to cause a log reduction

SMILES: CCCCCCCC/C=C\CCCCCCCC(=O)O [Oleic acid 18:1 cΔ9, Oleic acid]
Inhibits growth of Neisseria gonorrhoeae [1]: Yes | log reduction at 1000 µM [2, 7]: 1

SMILES: CCCCCCCCCCCCCCCC(=O)O [Palmitic acid 16:0, Palmitic acid]
Inhibits growth of Neisseria gonorrhoeae [1]: No

HC50 at 1 h ([4]; read-out: H50): 80 to 160 µM | HC50 at 1 h ([4]; read-out: H50 (mg/L)): 20 to 40 mg/L
SMILES: CCCCCC/C=C\CCCCCCCC(=O)O [Palmitoleic acid 16:1 cΔ9, (9Z)-hexadec-9-enoic acid]
anti-gonococcal properties in artificial tear fluid [3]: retained | Inhibits growth of Neisseria gonorrhoeae [1]: Yes | Inhibits growth of Neisseria gonorrhoeae ([1]; listed as palmitoleic acid): able to inhibit growth | MBC [5]: 500 µM (≈ 127 µg/mL) | log reduction at 1000 µM [2, 7]: > 6 | Log reduction of Neisseria gonorrhoeae [2, 9]: able to cause a log reduction

SMILES: CCCCCCCCCCCCCCC(=O)O [Pentadecylic acid 15:0, Pentadecylic acid]
Inhibits growth of Neisseria gonorrhoeae [1]: Yes | log reduction at 1000 µM [2, 7]: 0.5

SMILES: O=C(O)CCCCCC(=O)O [Pimelic acid]
Inhibits growth of Neisseria gonorrhoeae [1]: No

SMILES: CCCCCC[C@@H](O)C/C=C\CCCCCCCC(=O)O [Ricinoleic acid]
Inhibits growth of Neisseria gonorrhoeae [1]: Yes | log reduction at 1000 µM [2, 7]: 3.5

SMILES: O=C(O)CCCCCCCCC(=O)O [Sebacic acid]
Inhibits growth of Neisseria gonorrhoeae [1]: No

SMILES: CCCCCCCCCCCCCC(=O)[O-].[Na+] [Sodium myristate]
Inhibits growth of Neisseria gonorrhoeae [1]: Yes | Log reduction of Neisseria gonorrhoeae [2, 9]: 0.5

SMILES: C/C=C/C=C/C(=O)O [Sorbic acid 6:2 tΔ2,4, Sorbic acid]
Inhibits growth of Neisseria gonorrhoeae [1]: No

SMILES: CCCCCCCCCCCCCCCCCC(=O)O [Stearic acid 18:0, Stearic acid]
Inhibits growth of Neisseria gonorrhoeae [1]: No

SMILES: O=C(O)CCCCCCC(=O)O [Suberic acid]
Inhibits growth of Neisseria gonorrhoeae [1]: No

SMILES: O=C(O)CCC(=O)O [Succinic acid]
Inhibits growth of Neisseria gonorrhoeae [1]: No

SMILES: CCCCCCCCCCC(=O)O [Undecanoic acid 11:0, Undecanoic acid]
Inhibits growth of Neisseria gonorrhoeae [1]: Yes | log reduction at 1000 µM [2, 7]: 0.2

SMILES: CCCCCC/C=C/CCCCCCCCCC(=O)O [trans-Vaccenic acid 18:1 tΔ11, trans-Vaccenic acid]
Inhibits growth of Neisseria gonorrhoeae [1]: No
